Measurements reported in paper PMC10840350 (Redox Biology, 2024).

Tests used:
[1] = target: T1, TXNRD1 (thioredoxin reductase 1) (Rattus norvegicus, UniProt O89049); assay: […] min incubation, residual activity by DTNB reduction assay; format: biochemical; conditions: 0.25 h, read-out: % residual activity at 0.5 μM
T1 sequence (O89049 1-499): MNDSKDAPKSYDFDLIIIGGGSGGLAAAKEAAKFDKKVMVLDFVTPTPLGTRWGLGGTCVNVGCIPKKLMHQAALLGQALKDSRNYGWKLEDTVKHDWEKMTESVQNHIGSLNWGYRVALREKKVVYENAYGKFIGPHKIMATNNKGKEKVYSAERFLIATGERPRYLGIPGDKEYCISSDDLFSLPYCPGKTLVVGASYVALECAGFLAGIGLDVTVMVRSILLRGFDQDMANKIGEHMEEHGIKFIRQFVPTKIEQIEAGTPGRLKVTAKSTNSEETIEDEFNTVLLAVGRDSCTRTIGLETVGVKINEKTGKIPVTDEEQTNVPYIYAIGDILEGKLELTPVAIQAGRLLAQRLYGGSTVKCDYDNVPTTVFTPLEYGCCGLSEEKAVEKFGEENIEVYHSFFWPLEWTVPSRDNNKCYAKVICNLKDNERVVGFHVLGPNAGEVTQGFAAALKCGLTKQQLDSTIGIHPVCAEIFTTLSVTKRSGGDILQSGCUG

[2] = target: T1, TXNRD1 (thioredoxin reductase 1); assay: as above; format: biochemical

remaining activity at 0.5 µM [1] [%] | SMILES | 60 min incubation, residual activity by DTNB reduction assay [2]
~30 | COc1ccc([N+](=O)[O-])c(S(=O)(=O)c2ccc(Cl)cc2)n1 [TRi-1] | –
– | [NH2][Pt]([NH2])([Cl])[Cl] [cisplatin] | the inhibition of auranofin and cisplatin on TXNRD1 is not significantly affected by guiding bar mutants
